Source: US20150151008A1, “Contrast Media Taste Masking Formulations” (HOVIONE SCIENTIA LIMITED, priority 2013, published 2015)

Tests used:
[1] = Osmotic pressure (osmolality) in an osmometer; assay type: physicochemical
Method: The osmotic pressure analysis measures the driving force of a solution to displace water molecules through a membrane from the medium in one side to the other. Considering the membrane is the esophageal epithelium, high osmolality means loss of water from the surrounding tissues to the GI tract. […] […] The osmolality of the powders produced through micro-encapsulation using spray congealing and spray drying were measured and compared to those of the pure contrast agents.

[2] = Particle size and morphology by PLM / SEM imaging; assay type: physicochemical; conditions: raw, non-encapsulated iopamidol particles

| mOsmol at 15 mg l/mL [1] | mOsmol at 300 mg l/mL [1] | Diameter of iopamidol particles [2] | SMILES |
| --- | --- | --- | --- |
| 30 mOsmol | 572 mOsmol | approximately 3 μm | C[C@H](O)C(=O)Nc1c(I)c(C(=O)NC(CO)CO)c(I)c(C(=O)NC(CO)CO)c1I [Iopamidol (raw), 1-N,3-N-bis(1,3-dihydroxypropan-2-yl)-5-[(2S)-2-hydroxypropanamido]-2,4,6-triiodobenzene-1,3-dicarboxamide] |
| 36 mOsmol | 413 mOsmol |  | CC(=O)N(CC(O)CO)c1c(I)c(C(=O)NCC(O)CO)c(I)c(C(=O)NCC(O)CO)c1I (centres unmarked) [Iohexol (raw), 1-N,3-N-bis(2,3-dihydroxypropyl)-5-[N-(2,3-dihydroxypropyl)acetamido]-2,4,6-triiodobenzene-1,3-dicarboxamide] |
